Laboratory results: patent publication US8431530B2, “Compositions and methods for treating aids or cancer by inhibiting the secretion of microparticles” (priority 2009, dated 2013)

Columns and labels:
MDA-MB-231 cells = assay: Exosome (AChE marker) secretion from tumor cells, immunoblot; type: cell-based, human; conditions: MDA-MB-231, Chariot transfection, 48 hr, immunoblot densitometry normalized to tubulin; dose dependency in both compartments
Excerpt: FIG. 1 is a composite of diagrams showing the synthetic HIV-1 NefSMRwt peptide (antagonist) and HIV-1 NefSMRmt peptide (negative control) (panel A); the vector constructs expressing HIV-1 NefSMRwt peptide fused with GFP or HIV-1 NefSMRmt peptide fused with GFP (panel B); and the amount of acetylcholinesterase, a marker for exosomes, in MDA-MB-231 cells transfected with either HIV-1 NefSMRwt peptide (panelC) or SMRmt peptide (panel D). Untransfected MDA-MB-231 cells were used as negative controls. The cells were cultured for 48 hours in serum-free medium. One ml of supernatant was spun at 400,000×g. Supernatant pellets or set volume of cell lysate were run on PAGE, blotted, and probed with anti-AchE mAb (Acetylcholinesterase—1:1000 dilution; marker for exosomes). The cell lyasates were reprobed with anti-Tubulin mAb (1:4000). Bands were measured by densitometry, normalized against intracellular tubulin. Data shown here as percent relative to the untransfected control.
MDA-MB-231 cells were derived from human breast adenocarcinoma and […], and were obtained from the American Type Culture Collection (Manassas, Va.). […]
Pellets were resuspended in 1×SDS-PAGE loading buffer, separated by SDS-PAGE. […] Protein bands were detected by Western Blotting Luminol Reagent (Santa Cruz Biotechnology, Inc., Santa Cruz, Calif.). […]

[1] = test system: Gag-GFP + HIV-1wtNef-RFP secretion, Jurkat; assay: Gag-GFP secretion in presence of wtNef-RFP, fluorescent plate reader assay; type: cell-based; conditions: for Secretion relative to untransfected cells: Jurkat, Gag-GFP + HIV-1wtNef-RFP + peptide, 48 hours
Method: (§1) Cells were transfected with the pQBI-HIV Gag-GFP construct, wtNef-RFP, and either the antagonist (SMRwt peptide), the negative control SMRmt peptide, or a random peptide sM1 with Chariot for 48 hours. The conditioned supernatants from these cultures were assayed for GFP fluorescence by plate reader.

[2] = test system: Gag-GFP + HIV-1wtNef-RFP secretion, THP-1 Monocyte; assay: as above; type: cell-based; conditions: Gag-GFP + HIV-1wtNef-RFP + peptide, 48 hours
Method: as §1

[3] = test system: HIV-1 Gag-GFP secretion, Jurkat; assay: HIV-1 Gag-GFP induced secretion, fluorescent plate reader assay; type: cell-based; conditions: for SMRmt/SMRwt ratio of secretion: HIV-1 Gag-GFP; for Increase in Secretion (relative to untransfected cells), exp condition/UT: HIV-1 Gag-GFP (sM1 column head prints GFP/sM1), 0.5 μg peptide, 48 hours
Method: (§2) Cells were co-transfected with 0.5 μg of pQBI-HIV Gag-GFP (expresses wild type Gag protein) and either 0.5 μg of HIV-1 Nef SMRwt, SMRmut peptide, sM1 peptide or untransfected controls with Chariot for 48 hours. The conditioned supernatants from these cultures were assayed for GFP fluorescence by plate reader.

[4] = test system: HIV-1 Gag-GFP secretion, THP-1; assay: as above; type: cell-based; conditions: for SMRmt/SMRwt ratio of secretion: THP-1, HIV-1 Gag-GFP; for Increase in Secretion (relative to untransfected cells), exp condition/UT: THP-1, HIV-1 Gag-GFP (sM1 column head prints GFP/sM1), 0.5 μg peptide, 48 hours
Method: as §2

[5] = test system: HIV-1 Gag-GFP secretion, U937; assay: as above; type: cell-based; conditions: for SMRmt/SMRwt ratio of secretion: U937, HIV-1 Gag-GFP; for Increase in Secretion (relative to untransfected cells), exp condition/UT: U937, HIV-1 Gag-GFP (sM1 column head prints GFP/sM1), 0.5 μg peptide, 48 hours
Method: as §2

[6] = test system: HIV-1 Gag-GFP secretion, HEK293; assay: as above; type: cell-based; conditions: for SMRmt/SMRwt ratio of secretion: HEK293, HIV-1 Gag-GFP; for Increase in Secretion (relative to untransfected cells), exp condition/UT: HEK293, HIV-1 Gag-GFP (sM1 column head prints GFP/sM1), 0.5 μg peptide, 48 hours
Method: as §2

Substance | AChE (exosome marker) intracellularly and in the cell supernatant (MDA-MB-231 cells) | Secretion relative to untransfected cells ([1]; first line) [x] | Secretion relative to untransfected cells ([1]; second line (not explained)) [x] | Secretion relative to untransfected cells ([2]; first line) [x] | Secretion relative to untransfected cells ([2]; second line (not explained)) [x] | SMRmt/SMRwt ratio of secretion [3] [y] | Increase in Secretion (relative to untransfected cells), exp condition/UT [3] [x] | SMRmt/SMRwt ratio of secretion [4] [y] | Increase in Secretion (relative to untransfected cells), exp condition/UT [4] [x] | SMRmt/SMRwt ratio of secretion [5] [y] | Increase in Secretion (relative to untransfected cells), exp condition/UT [5] [x] | SMRmt/SMRwt ratio of secretion [6] [y] | Increase in Secretion (relative to untransfected cells), exp condition/UT [6] [x] | release of Gag virus-like particles in the presence of wtNef-RFP (in words, Table III) ([1]; Jurkat and THP-1, Gag-GFP + wtNef-RFP) | Gag virus-like particle release (in words, Table II) ([3]; Gag-GFP alone, HEK293, THP-1, U937)
H2N-AGFPVAAAGFPVDYKDDDDK-OH (H-AGFPVAAAGFPVDYKDDDDK-OH) [SMRmt] | no effect | 55.73 | 43.51 | 49.27 | 22.24 | 1.22 | 58.22 | 1.08 | 45.06 | 1 | 43.82 | 1.08 | 25.96 |  | 
H-VGFPVAAVGFPVDYKDDDDK-OH [SMRwt] | knocked down AChE intracellularly and in the cell supernatant | 1.3 | 1.16 | 0.95 | 0.91 | 1 | 47.46 | 1 | 41.3 | 1 | 43.95 | 1 | 24.22 | blocks release of Gag virus-like particles | no effect on Gag virus-like particle release
